Values quoted from earlier work, collected in patent publication US6867197B1, “Method of targeting conjugate molecules to mitochondria” (Mitokor, priority 1995, dated 2005).

Test system: mitochondria
Conditions: high concentrations; NAO is a mitochondrial toxin at these concentrations

CCCCCCCCC[n+]1c2cc(N(C)C)ccc2cc2ccc(N(C)C)cc21 [NAO, 10N-nonylacridine orange]
concentrations at which electron transport, ATP hydrolysis and Pi-transport are inhibited and respiration disrupted: 3 to 10 µM
